Entries after “also recorded” stand apart in the source; their conditions may differ. Values belong to the compound of their own block, whether it stands above or below them.
Experiments:
[1] = molecular target: T1, TPH1 (Homo sapiens, UniProt P17752); test: Steady-state kinetic study of TPH1 inhibition; type: biochemical
T1 construct: doubly truncated human TPH1 (ΔNH102-ΔCOOH402); made in house; host or cells: E. coli BL21(DE3)
Method: Steady-state kinetic studies were performed to explore the mode of inhibition. […] TPH1 and TH activity assays were performed as indicated above in the absence and presence of three different compound concentrations (TPH1: 0–100 μM; TH: 0–25 μM). Product formation was measured either at a fixed concentration of the cofactor BH4 (200 μM) and varying concentrations of L-Trp (0.937–60 μM) or L-Tyr (3.125–50 μM), respectively, or in the presence of varying concentrations of BH4 (TPH1:12.5–400 μM; TH: 7.4–200 μM) and a fixed concentration of amino acid substrates: 30 μM of L-Trp or 50 μM of L-Tyr, respectively. Kinetic parameters were obtained from the Michaelis–Menten model using nonlinear regression fit [drawing 3] where Vmax is the maximum enzyme velocity and Km the Michaelis–Menten constant.
Lineweaver–Burk plots were obtained by plotting the reciprocal of the rate of the enzyme reaction (1/V) versus the reciprocal substrate concentration (1/[S]) in the absence and presence of compounds.

[2] = system: PAH; conditions: proteome profiling study; cited from earlier work
[3] = molecular target: T2, endogenous PAH (Homo sapiens, UniProt P00439); test: Cellular thermal shift assay (CETSA) in HepG2 cells; type: cell-based; conditions: 50 μM compound, 1 h, vs DMSO
T2 construct: increased melting temperatures (ΔTm) of endogenous PAH; endogenous in cells; host or cells: HepG2
T2 sequence (P00439 1-452): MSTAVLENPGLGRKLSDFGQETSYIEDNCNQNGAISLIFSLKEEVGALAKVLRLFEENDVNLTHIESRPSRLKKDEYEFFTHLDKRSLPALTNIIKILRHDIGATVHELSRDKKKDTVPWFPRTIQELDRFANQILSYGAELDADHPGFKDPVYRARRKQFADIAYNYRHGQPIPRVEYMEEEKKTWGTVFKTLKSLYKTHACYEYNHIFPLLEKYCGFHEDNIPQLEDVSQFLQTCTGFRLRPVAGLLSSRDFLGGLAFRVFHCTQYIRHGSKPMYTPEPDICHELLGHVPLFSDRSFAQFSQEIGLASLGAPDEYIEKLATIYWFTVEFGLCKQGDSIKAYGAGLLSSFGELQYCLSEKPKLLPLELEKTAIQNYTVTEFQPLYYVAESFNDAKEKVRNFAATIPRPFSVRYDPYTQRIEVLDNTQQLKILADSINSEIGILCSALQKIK
Method: Then, cells were washed, harvested using trypsin, and pelleted by centrifugation. The pellet was washed twice with PBS supplemented with complete EDTA-free protease inhibitor cocktail (Roche) and divided into 14 aliquots of 35 μL containing 800,000 cells. Cells were then frozen in liquid nitrogen and thawed at 25 °C three times, and each aliquot was heated to a defined temperature by applying a gradient between 39 °C and 69 °C in a thermocycler (peQSTAR, PeQlab; 16-well gradient, 54 °C ± 15 °C). After 3 min incubation, aliquots were snap frozen in liquid nitrogen and thawed at 25 °C. Cell lysates were centrifuged at 20,000 g (4 °C) for 20 min. Supernatants were mixed with 5x loading buffer, heated to 70 °C for 5 min and analyzed by Western blotting. Chemoluminescence signals were recorded with a FusionSL, Vilber Lourmat (peQlab) and quantified using FusionCapt Advance FX7 16.01c software. Calculation of ΔTm was conducted using the Boltzmann sigmoidal model in GraphPad prism 7.01.
Cell lysates used for Western blot analysis were prepared as described in the Methods section (Cellular Thermal Shift Assay). […] Chemoluminescence signals were recorded with an FusionSL, Vilber Lourmat (peQlab) and quantified using FusionCapt Advance FX7 16.01c software.

[4] = system: TH; conditions: proteome profiling study; cited from earlier work
[5] = molecular target: TH (Homo sapiens, UniProt P07101); test: Steady-state kinetic study of TH inhibition; type: biochemical; conditions: for TH Vmax (µmol/(min*mg)): BH4 7.4 – 200 µM / L-Tyr 50 µM
TH (Homo sapiens, UniProt P07101), sequence (P07101 1-497 isoform P07101-3): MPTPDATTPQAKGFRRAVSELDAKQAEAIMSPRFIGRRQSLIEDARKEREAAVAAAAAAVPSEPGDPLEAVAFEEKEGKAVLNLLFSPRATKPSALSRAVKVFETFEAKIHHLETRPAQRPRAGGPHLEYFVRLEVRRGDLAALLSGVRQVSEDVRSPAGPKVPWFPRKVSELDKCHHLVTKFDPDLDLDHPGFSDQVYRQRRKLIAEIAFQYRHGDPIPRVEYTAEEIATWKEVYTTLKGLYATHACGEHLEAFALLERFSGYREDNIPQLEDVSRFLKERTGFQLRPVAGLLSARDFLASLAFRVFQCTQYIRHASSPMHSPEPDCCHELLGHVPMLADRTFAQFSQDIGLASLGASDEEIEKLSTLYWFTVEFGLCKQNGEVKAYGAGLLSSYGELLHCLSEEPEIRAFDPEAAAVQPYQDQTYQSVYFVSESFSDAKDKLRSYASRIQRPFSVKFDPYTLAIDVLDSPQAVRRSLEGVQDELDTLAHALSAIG
Method: Steady-state kinetic studies were performed to explore the mode of inhibition. […] TH: 0-25 μM). […] Kinetic parameters were obtained from the Michaelis-Menten model using nonlinear regression fit [drawing 3] where Vmax is the maximum enzyme velocity and Km the Michaelis-Menten constant. Lineweaver-Burk plots were obtained by plotting the reciprocal of the rate of the enzyme reaction (1/V) versus the reciprocal substrate concentration (1/[S]) in the absence and presence of compounds.

[6] = EG22 5 μM, BH4 12.5–400 μM/L-Trp 30 μM
[7] = EG22 5 μM, L-Trp 0.937–60 μM/BH4 200 μM
[8] = EG22 30 μM, BH4 12.5–400 μM/L-Trp 30 μM
[9] = EG22 30 μM, L-Trp 0.937–60 μM/BH4 200 μM
[10] = EG22 100 μM, BH4 12.5–400 μM/L-Trp 30 μM
[11] = EG22 100 μM, L-Trp 0.937–60 μM/BH4 200 μM

T1 sequence (P17752 102-402): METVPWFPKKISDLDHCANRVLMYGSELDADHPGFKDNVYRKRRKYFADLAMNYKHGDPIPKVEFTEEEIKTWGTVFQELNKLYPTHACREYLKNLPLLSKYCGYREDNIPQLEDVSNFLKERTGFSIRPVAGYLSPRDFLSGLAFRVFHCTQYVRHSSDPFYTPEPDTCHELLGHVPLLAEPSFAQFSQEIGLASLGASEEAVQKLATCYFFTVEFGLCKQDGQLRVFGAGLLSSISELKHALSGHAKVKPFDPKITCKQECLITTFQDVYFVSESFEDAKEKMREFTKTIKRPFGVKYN

Compound: O=C(NO)c1ccc(Cl)c(C(=O)Nc2ccc(Cl)cc2)c1 [EG22, 4-Chloro-3-(4-chlorophenylcarbamoyl)-N-hydroxybenzamide]
- mode of TPH1 inhibition, varying BH4 and fixed L-Trp ([1]; EG22 0–100 μM): competitive inhibition; also recorded: mainly competitive
- mode of TPH1 inhibition, varying L-Trp and fixed BH4 ([1]; EG22 0–100 μM): apparent mixed/uncompetitive inhibition; also recorded: mixed noncompetitive/uncompetitive
- Km [1, 6]: 22.3 ± 6.8 µM
- TPH1 Vmax (μmol/(min·mg)) [1, 6]: 3.4 ± 0.2 µmol/min/mg
- Km [1, 7]: 11.7 ± 1.1 µM
- TPH1 Vmax (μmol/(min·mg)) [1, 7]: 4.4 ± 0.2 µmol/min/mg
- Km [1, 8]: 53.8 ± 11.2 µM
- TPH1 Vmax (μmol/(min·mg)) [1, 8]: 3.0 ± 0.2 µmol/min/mg
- Km [1, 9]: 7.5 ± 1.3 µM
- TPH1 Vmax (μmol/(min·mg)) [1, 9]: 3.0 ± 0.2 µmol/min/mg
- Km [1, 10]: 76.9 ± 12.5 µM
- TPH1 Vmax (μmol/(min·mg)) [1, 10]: 2.8 ± 0.2 µmol/min/mg
- Km [1, 11]: 5.5 ± 0.8 µM
- TPH1 Vmax (μmol/(min·mg)) [1, 11]: 2.4 ± 0.1 µmol/min/mg

- ΔTm at 50 µM [3]: 3.7 °C
- mode of TH inhibition versus the amino acid substrate ([5]; panobinostat): mixed noncompetitive/uncompetitive
- TH Vmax (µmol/(min*mg)) ([5]; panobinostat 2.5 µM): 1.0 ± 0.1 µmol/min/mg
- TH Vmax (µmol/(min*mg)) ([5]; panobinostat 10 µM): 0.32 ± 0.033 µmol/min/mg
- TH Vmax (µmol/(min*mg)) ([5]; panobinostat 25 µM): 0.23 ± 0.029 µmol/min/mg
Compound: Cc1[nH]c2ccccc2c1CCNCc1ccc(/C=C/C(=O)NO)cc1 [panobinostat, reference compound]
- IC50 [2]: 0.2 µM
- IC50 [4]: 3.3 µM
- mode of TH inhibition toward BH4 ([5]; panobinostat 0–25 μM): mixed competitive/noncompetitive inhibition; also recorded: mainly competitive

— paper PMC11587510, “Aromatic Amino Acid Hydroxylases as Off-Targets of Histone Deacetylase Inhibitors” (ACS Chemical Neuroscience, 2024)
